Entries after “also recorded” stand apart in the source; their conditions may differ. Read-outs that look alike come from different tables or passages of the source.
Columns and labels:
rats [1] = experiment: Water maze: drug action on alprazolam-disrupted learning behavior in rats; assay type: in vivo, rat; conditions: oral 5 mg/kg
rats [2] = experiment: as above; assay type: in vivo, rat; conditions: for antagonism of alprazolam amnesic effect: doses equimolar to IDRA 21 / (+) IDRA 21
Description: Rats (male 250 g b.w.) were trained two days, once a day, in maze A (See insert A). […] Rats were exposed to a new maze configuration (Maze B) in 4 successive trials 15, 30, 45, and 60 min after the i.p. injections.
(§1) The water maze apparatus was adapted from Kant et al., (16), and consists of three concentric squares placed inside a 5 ft plastic pool (FIG. 6). The walls of the maze are 50 cm in height and are constructed from black opaque plastic to allow for tracking of the animal with an overhead camera. The alleys between the walls are 16 cm wide. In the center of each wall there is a removable doorway. The opening of doorways allows for the construction of mazes with an increasing number of potential error possibilities. (See diagram for Maze A and Maze B, FIG. 6). The maze is located in a room 10'×15' at constant temperature (18° C.) adjacent to the vivarium. The room is illuminated with overhead lights which also serve as spatial cues. Additional spatial cues are provided by the position of the investigator and a number of small white x's placed within specific locations upon the walls of the maze. The maze is filled with water (18°)C. to a depth of 25 cm.
(§2) Seven days prior to drug studies, rats were tested in Maze A (forced maze) on two consecutive days. Pretesting with the "forced" maze enabled the assessment of the animals' general motor, sensory and motivational abilities, and facilitated the exclusion of those animals unable to meet pretesting criteria. Performance was assessed by determining either swim time, errors committed, or path length measured with a computerized recording device. Errors are defined as whole body entry into alleys not leading directly to the exit platform (i.e., shaded portions in FIG. 6). Rats were excluded from the study if their swim path length and/or number of errors were two standard deviations above the mean […] of the entire group. During the first two trials, the rats were placed into the center of the maze and given a maximum of 180 secs to find the "exit platform" located at the "finish" (FIG. 6). The time required, the number of errors, and the path length were recorded for each trial. […] Rats meeting the criteria were randomly divided into groups. On the day of the experiment, a single trial was run (Maze A) in order to establish a baseline of performance. Following drug administration, the rats were again tested once on Maze A to establish a baseline of post-treatment performance. Following an additional interatrial interval of 30 min., the rats were tested on Maze B.
In these experiments, rats were trained in Maze B 15, 30, 45 and 60 min. after drug injection.

[3] = system: AMPA receptors located on CAl pyramidal neuronal membranes; experiment: Slow bath perfusion, whole-cell: potentiation of glutamate-elicited current (with MK-801) in CAl pyramidal neurons of hippocampal slices; assay type: cell-based, rat
Description: (§3) Young rats (12-16 days old) were decapitated and the brains quickly removed and placed in ice-cold Ringer solution. Thin slices of hippocampus (250 μm) were then cut with a vibratome slicer (Lancer, St. Louis, Mo.) and kept in Ringer solution at 37° C. until use. The experiments were carried out at room temperature with the slice totally submerged in a 1 ml volume recording chamber and under continuous perfusion with Ringer solution at a rate of 6 ml/min using an upright Hoffman modulation contrast microscope (Carl Zeiss, Germany) equipped with a 40×water immersion objective.
(§4) Media and drug application. The external Ringer solution contained (in mM): NaCl 120; KCl 3.1; CaCl2 2; MgCl2 1; KH2 PO4 1; NaHCO3 26; glucose 2.7; and it was continuously bubbled with 95% O2 and 5% CO2. Patch pipettes were filled with a solution containing (in mM): K-gluconate 140; MgCl2 1; ATP.Mg 2; EGTA 0.5; HEPES-KOH 10, pH 7.2. All the drugs under investigation were applied through the recording chamber perfusion system via parallel inputs having a common entry into the chamber. Agonist application was attained using two different systems that allowed a slow or a rapid solution change. Slow solution changes were used during recordings in whole-cell configuration and were obtained by exchanging the solution of the recording chamber within a few seconds. Fast solution changes were obtained with the use of the Y-shaped tubing method that allows complete exchange of solution in less than 10 ms, and is described in detail by Murase et al. (1989).
IDRA compounds (see above for structures) were first dissolved in 50 μl of DMSO, then […] of 1N NaOH and water (sufficient to reach a volume of 1 ml and a concentration of 10 mM). The final concentration was reached diluting the stock solution with Ringer solution.
(§5) Ionic currents in whole-cell configuration and outside-out excised membrane patches were monitored using the patch clamp technique (15).
The action diazoxide and the IDRA analogues were tested on the desensitization of AMPA receptors located on CAl pyramidal neuronal membranes in rat hippocampal slices. In order to evaluate whether the compounds under study increase the intensity of currents generated by the activation of non-NMDA receptors, these receptors were activated with glutamate in the presence of 5 μM MK-801 to block completely the ionic current elicited by glutamate acting on the NMDA receptor channels present in CAl pyramidal neurons. Three distinct methods of drug application were employed: 1) slow bath perfusion of agonist and drugs while recording in whole-cell mode (onset 30s); ii) fast application to outside-out patches of a fixed concentration of agonist with a double barrel pipette (onset<1 ms) in the presence and the absence of drugs; iii) fast perfusion (onset<6 ms) of increasing concentrations of agonist and drugs applied with the Y-tubing device to outside-out patches excised from neurons in brain slices and to voltage-clamped neurons in primary culture.
. The most efficacious (1 mM) derivative was IDRA21, which elicited a potentiation of 797±220% (n=4 cells), followed by IDRA 20 with a potentiation of 292±100% (n=4 cells) (FIG. 2). […]

animals and humans = conditions: refs 1-3 (NMDA antagonists); refs 7-9 (aniracetam); cited from earlier work
AMPA receptor [4] = experiment: Fast application with double barrel pipette: AMPA receptor desensitization in outside-out patches from CAl hippocampal pyramidal neurons; assay type: cell-based, rat; conditions: 5 μM; 1 mM glutamate with 5 μM MK-801
Description: as §3, §4
Briefly, a polyethylene tubing (1 mm i.d.) is bent in a U-shaped, and another fine polyethylene tubing (50 μi.d.) and 10 mm length) is inserted into a small hole in the U-tubing making the tip of the Y-tubing. Solutions are fed to the Y-tubing by gravity, and negative pressure facilitates exchange of the solution. The tip of the Y-tubing is positioned 100 μm from the cell investigated, and upon opening and closing of a valve that controls the negative pressure, it was possible to respectively change rapidly and apply a number of different test solutions. This method was used to apply agonists to excised outside-out membrane patches. More rapid drug applications were used to apply agonists to excised outside-out membrane patches, and were obtained through a double-barrelled pipette positioned close to the recording pipette containing the membrane patch. […] The agonist was applied for a period of 150 ms and the time necessary for a complete exchange of the solution was less than 1 ms as measured at the opening of a patch pipette containing different dilutions of the drugs under study. […]
Ionic currents in whole-cell configuration and outside-out excised membrane patches were monitored using the patch clamp technique (15). […]

[5] = system: kainate-activated current; experiment: Selectivity: ionic current elicited by 20 μM kainate; assay type: cell-based, rat; conditions: for effect on kainate-activated current: 1 mM compound, 20 μM kainate; for effect on kainate responses at doses that decreased AMPA desensitization: all doses that decrease/inhibit AMPA desensitization
Description: as §3, §4, §5

rats [6] = experiment: Water maze: drug action on learning and retention in rats; assay type: in vivo, rat; conditions: IDRA 21 15 mg/kg
Description: Rats (male, 250 g) were trained once a day in maze A (See FIG. 8B forced maze) for 2 consecutive days. The day of the experiment, after a first exposure to maze A, IDRA 21 (15 mg/kg) Aniracetam (500 mg/kg) or vehicle (cont) were administered per oral gavage and 30 min later the animals were exposed once again to Maze A. After 30 min of interatrial rest, rats were exposed to Maze B (see FIG. 8C open maze).
as §1, §2

AMPA receptor [7] = conditions: cited from earlier work
[8] = system: EPSCs elicited in CAl pyramidal neurons; experiment: Excitatory postsynaptic currents (EPSCs) in CAl pyramidal neurons in hippocampal slices on stimulation of Schaffer collateral afferents; assay type: cell-based, rat; conditions: in vitro; compared with (+) IDRA 21
Description: as §3, §5
Traces were filtered at 3 KHz (-3 dB, 8-pole, lowpass Bessel filter, Frequency Devices), and stored in an LSI 11/73 computer (INDEC System, Sunnyvale, Calif.) after digitization (10 KHz) with a Data Translation analog to digital converter. Decay time constants of EPSC and glutamate-activated currents were determined from exponential fitting with the 11/73 system by using an entirely automated least-squares procedures (see Vicini and Schuetze, 1985, for further details). This method uses a Simplex algorithm (Caceci and Cacheris, 1984) to fit the data to either a single or double exponential equation of the form I(t)=If exp(-t/tauf)+Is exp(-t/taus), where If and Is are the amplitudes of the sIPSC fast and slow components, and tauf and taus are their respective decay time constants. Peak amplitudes were measured at the absolute maximum of the currents, taking into account the noise of the baseline and noise around the peak. Rise times were measured as the time elapsed from 20 to 80% of the peak amplitude of the response.
The action of nootropic drugs on the excitatory postsynaptic currents (EPSCs) elicited in CAl pyramidal neurons in hippocampal slices was investigated by stimulation of the Schaffer collateral afferents.

CC1Nc2ccc(Cl)cc2S(=O)(=O)N1 (single isomer, unassigned; (-)) [(-) IDRA 21]
prevention of alprazolam-induced amnesia (enantiomers) (rats [1]): inactive
biological activity of enantiomers (summary) (rats [2]; summary statement): inactive

CC1Nc2cc(Cl)ccc2S(=O)(=O)N1 (stereo not shown) [IDRA 20, 6-chloro-3-methyl-3,4-dihydro-2H 1,2,4-benzothiadiazine S-S dioxide]
potentiation of glutamate-elicited current ([3]; 1 mM compound, 50 μM glutamate, 5 μM MK-801, whole-cell, slow perfusion): 292±100%

O=S1(=O)NC(C2CC3C=CC2C3)Nc2ccc(Cl)cc21 (stereo not shown) [IDRA 23, 6-chloro-3-bicyclo[2.2.1]-hept-2-ene-3,4-dihydro-2H 1,2,4-benzothiadiazine S-S dioxide]
efficacy compared with diazoxide (potentiation of glutamate current), in words ([3]; 1 mM, 50 μM glutamate): either equally or less efficacious than diazoxide

C[C@]12N[C@H](Cc3ccccc31)c1ccccc12 [MK-801]
effect on learning and memory (background) (animals and humans): produce profound alterations in learning, disrupt memory consolidation and retrieval in animals and man

NS(=O)(=O)c1cccc2c1c([N+](=O)[O-])cc1[nH]c(=O)c(=O)[nH]c12 [NBQX, 1,2,3,4-tetrahydroxy-6-nitro-2,3-dioxo-benzo-[f]quinoxaline-7-sulfonamide, reference compound]
block of transient peak and sustained plateau currents (AMPA receptor [4]): completely blocked

COc1ccc(C(=O)N2CCCC2=O)cc1 [aniracetam]
effect on learning and memory (background) (animals and humans): enhancing learning and memory (nootropic action) in animals
effect on kainate-activated current [5]: failed to potentiate the kainate-activated current
effect on kainate responses at doses that decreased AMPA desensitization [5]: failed to affect kainate responses
improvement of water maze performance (rats [6]; FIG. 8A, Aniracetam 500 mg/kg oral): improve water performance in rats
significance (P) of water maze performance vs control (rats [6]; Aniracetam 500 mg/kg per oral gavage, at least 5 rats): < 0.05
AMPA receptor desensitization / modulation (background) (AMPA receptor [7]): attenuating AMPA receptor spontaneous desensitization
potency and duration of action (background) (AMPA receptor [7]): low potency and short lasting action
AMPA receptor desensitization / modulation (background) (AMPA receptor [7]; listed as Aniracetam): decreases AMPA receptor desensitization

NS(=O)(=O)c1cc2c(cc1Cl)N=CNS2(=O)=O [chlorothiazide, reference compound]
antagonism of alprazolam amnesic effect (rats [2]): inactive

CC1=NS(=O)(=O)c2cc(Cl)ccc2N1 [diazoxide, reference compound]
effect on kainate-activated current [5]: increased the current
effect on kainate responses at doses that decreased AMPA desensitization [5]: potently potentiated kainate responses
potentiation of glutamate current, in words ([3]; 100 μM): inactive
potentiation of glutamate-elicited current ([3]; 500 μM compound, mean±SE, N=4 cells): 152±0.2%
maximal efficacy reached, in words ([3]; 1 mM, maximal dose testable without vehicle effect): failed to reach maximal efficacy at 1 mM
potentiation of glutamate current, dose dependence ([3]; up to 1 mM): dose-dependent potentiation
antagonism of alprazolam amnesic effect (rats [2]): inactive; also recorded: unable to antagonize alprazolam-induced impairment of learning behavior
efficacy in increasing excitatory synaptic strength in CAl pyramidal neurons [8]: at least as efficacious as (+) IDRA 21

CNC1(c2ccccc2Cl)CCCCC1=O (stereo not shown) [ketamine]
effect on learning and memory (background) (animals and humans): produce profound alterations in learning, disrupt memory consolidation and retrieval in animals and man

c1ccc(C2(N3CCCCC3)CCCCC2)cc1 [phencyclidine]
effect on learning and memory (background) (animals and humans): produce profound alterations in learning, disrupt memory consolidation and retrieval in animals and man

Source: patent publication US5488049A, “Method of treating learning and memory disorders using benzothiadiazide derivatives as nootropic agents” (FIDIA - Georgetown Institute for the Neuro-Sciences, priority 1993, dated 1996)
